Key:
[1] = tested on: second extracellular loop of the 5-HT4 receptor (peptide C15Q); experiment: Inhibition ELISA (IE): anti-peptide antibody against 5-HT4 receptor on the coated synthetic peptide C15Q; assay type: binding; conditions: FIG. 3
Procedure: • Coating • Corresponding peptide is dissolved extemporaneously in appropriate buffer. Peptide at calibrated concentration is coated on a highly absorbing microtitre plate. • Blocking of non-specific binding • Wash • The plate is washed with washing buffer (appendix 1). • Molecules to be screened on the peptide • Each molecule is dissolved and distributed on the plate.
Each molecule which is able to decrease the absorbance at 405 nm at around 20% from its control value is selected for the DMAE.
Five μg/ml of corresponding peptide (C15Q) was coated on a microtitre plate (Falcon, 96 wells). After blocking nonspecific binding sites with blocking buffer, polyclonal anti-C15Q antibodies at decreasing serial dilutions were allowed to react with the peptide.
The same protocol as mentioned above in “Example 1” was performed: […]

[2] = biological target: second extracellular loop of the muscarinic M2 receptor (homologue peptide) (Homo sapiens, UniProt P08172); experiment: Indirect Inhibition ELISA (IIE): antibody against M2 receptor, homologue peptide and ligand in liquid phase; assay type: binding; conditions: FIG. 5
Procedure: The selected molecule should beside binding the parent peptide in solid phase also be able to bind it in liquid phase. The latter would mime the in vivo conformation of the parent peptide. • Coating • Corresponding peptide is dissolved extemporaneously in appropriate buffer. Peptide at calibrated concentration is coated on a highly absorbing microtitre plate. • Blocking of on-specific binding • Wash • The plate is washed with washing buffer (appendix 1). • Selected molecules to be tested on IIE • Each molecule dissolved at known concentration is distributed on the plate. Immediately different cascade concentration of the parent peptide is added to the well. This is thereafter followed by the first antibody at AD50 dilution and incubated for an appropriate time and at an optimal temperature. • Wash • The plate is washed with washing buffer (appendix 1). • Secondary antibodies • Peroxidase conjugated goat anti-rabbit antibodies diluted at appropriate dilution (appendix 2) is allowed to react with the bound polyclonal anti-GPCR antibodies for an appropriate time and at an optimal temperature. • Wash
The same protocol as mentioned above in “Example 1 ” was performed: […]

second extracellular loop of the muscarinic M2 receptor (homologue peptide), sequence (P08172 163-182 limits assumed): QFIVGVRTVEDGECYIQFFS

SMILES	inhibition of the interaction of the anti-peptide antibody raised against the 5-HT4 receptor with the corresponding synthetic peptide [1]	competition with the homologue peptide for binding the anti-peptide antibodies [2]
NCCc1c[nH]c2ccc(O)cc12 [5-HT, serotonin]	specifically inhibited	–
CC[N+](CC)(CC)CCOc1cccc(OCC[N+](CC)(CC)CC)c1OCC[N+](CC)(CC)CC [gallamine]	–	able to compete with the homologue peptide and hinder the recognition between the homologue peptide and the anti-peptide in liquid phase

Source: US20070166772A1, “Methods for selecting compounds using antibodies with activity as antagonist, antagonist or allosteric modulators” (priority 2003, published 2007)
